This is an account of results in PubChem BioAssay AID179 (DTP/NCI, 2004).

Several values for one entry are separate records, joined by “and”; a condition that tells them apart may be missing. Equal values may be shown once. Activity calls are given as the source filed them.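 Rule for the calls: active = compounds giving half or more protection of infected cells from virus-caused growth loss, again on retest; inactive = the rest.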

The experiment has as its system CEM cells HIV-1 protection, formazan growth assay. Kind of experiment: NCI AIDS Antiviral Assay. The settings on record: for IC50: measured here: growth of uninfected CEM cells. The essentials: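 Human CEM cells, uninfected and HIV-1-infected, received five drug concentrations, and growth was read by soluble formazan assay. Compounds giving at least 50% protection were retested; reproducible 100% protection defined confirmed active.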

One may read the EC50 as the midpoint of the concentration-response curve. `CC1(C)CC(=O)C(C(=O)C(=O)NC2=C(Cl)C(=O)c3ccccc3C2=O)C(=O)C1`: the EC50 was over 17.8 µM.
As for `Nc1nc(N)c(CCc2ccccc2)c(N)n1`, the result was inactive.
What is called IC50 is the concentration that inhibits the measured activity by half. `Cc1cc2ccccc2n1CC(=O)NCC(C)C`: the EC50 was over 200 µM and the IC50 was over 200 µM.
Take `N#CCCN(CCC#N)c1ccc(/C=C2\N=C(CN3C(=O)c4ccccc4C3=O)OC2=O)cc1`: the EC50 was over 79.4 µM and the IC50 is over 79.4 µM.
For the compound `COC(=O)C(CNC(=O)/C=C/c1ccc(OC)c(OC)c1)NC(=O)/C=C/c1ccc(OC)c(OC)c1` (stereo unspecified), the EC50 was over 200 µM and the IC50 turned out to be 135 µM.
For the compound `Cc1cn(COCCSc2ccccc2)c(=O)[nH]c1=O`, the EC50 was over 135 µM and the IC50 was 83.2 µM.
Taken in the same sequence, the figures for `CCOC(=O)c1ccc(CS(=O)c2ccc([N+](=O)[O-])cc2)c([N+](=O)[O-])c1` (stereo unspecified) were over 69.2 µM and 21.4 µM.
Regarding `Cc1cn(C2CC(O)C(CNC(=O)NO)O2)c(=O)[nH]c1=O` (stereo unspecified), the EC50 was over 200 µM and the IC50 was over 200 µM.
`C[C@]12CC[C@H](O)CC1=CCC1C2CC[C@@]2(C)C1CC[C@@H]2COS(=O)(=O)O` (stereo partly specified): the EC50 is over 61.7 µM and the IC50 is over 61.7 µM.
With `O=C1c2cc3c(cc2NC(c2ccccc2F)C1O)OCO3` (stereo unspecified), the EC50 is over 200 µM and the IC50 came out at 12 µM.
On to `CC[n+]1c(/C=C/c2ccc(N(CCCl)CCCl)cc2)ccc2cc(NC(=O)/C=C/c3ccccc3)ccc21`, for which the result was inactive.
On to `CC(=O)c1ccc(C(O)C(CO)NC(=O)C(Cl)Cl)cc1` (stereo unspecified), for which the EC50 was over 200 µM and the IC50 was over 200 µM.
Turning to `COC(=O)/C=C1\SC(OC)(N(C)c2ccccc2)N(C)C1=O` (stereo unspecified), the EC50 is over 155 µM and the IC50 worked out at 145 µM.
As for `COC[C@H](C)N=CN1CCc2ccccc2C1`, the EC50 is over 1070 µM and the IC50 is over 1070 µM.
With `N#CNC1=NC(N)C(c2nc3ccccc3[nH]2)=C(CCCC(=O)Nc2cccc([N+](=O)[O-])c2)N1` (stereo unspecified), the EC50 is over 77.6 µM and the IC50 is over 77.6 µM.
As to `CC1=Nc2c([nH]c(=S)[nH]c2=O)NC(c2ccc(Cl)c(Cl)c2)C1` (stereo unspecified), the EC50 is over 7.76 µM and the IC50 is over 7.76 µM.
For `CN1CCC2(CC1)C(=O)N(N1CCCCCC1)C(=O)N2c1ccccc1`, the EC50 is over 200 µM and the IC50 is over 200 µM.
As for `CCN(CC)CCCNc1cnnc2cc(Cl)ccc12`, the EC50 was over 363 µM and the IC50 was found to be 83.2 µM.
Take `CC1C(=O)NC(=O)CC(=O)NC1=O`: the EC50 is over 1350 µM and the IC50 was over 1350 µM.
For the compound `CC(C#N)N(CCc1ccccc1)C(=O)c1ccccc1` (stereo unspecified), the EC50 was over 200 µM and the IC50 is over 200 µM.
With `CC(C)[C@@H]1CC[C@@H](C)C[C@H]1OC(=O)c1c2n(c3ccccc13)C[C@H]1OC(C)(C)O[C@@H]21`, the EC50 was over 100 µM and the IC50 was found to be 77.6 µM.
In the same order, the values of `CCOC(=O)NC(Nc1ccc(F)cc1F)(C(F)(F)F)C(F)(F)F` are over 200 µM and over 200 µM.
`CCOC(=O)NC(=O)c1cn(CCN2CCN(C(=O)CCCCCCCCCCNc3ncnc4c3ncn4C3OC(CO)C(O)C3O)CC2)c(=O)[nH]c1=O` (stereo unspecified): the result was inactive.
As for `Cc1cc(S(=O)(=O)NC2=NCCCN2)c(S)cc1Cl`, the EC50 was over 257 µM and the IC50 amounted to 64.6 µM.
Consider `O=C(CC(C(=O)c1cccs1)c1ccsc1)c1cccs1` (stereo unspecified), for which the EC50 was over 200 µM and the IC50 is 40.7 µM.
Taken in the same sequence, the figures for `OC(C1=C/C(=C\c2ccncc2)c2ccccc21)c1ccncc1` (stereo unspecified) were over 83.2 µM and 5.25 µM.
In the case of `CN1C(=O)N(C)C2(CCN(CCCCCCF)CC2)C1=O`, the EC50 was over 200 µM and the IC50 is over 200 µM.
Consider `O=C1C=CC(=O)c2c1ccc1c3ccccc3n(Cc3ccccc3)c21`, for which the EC50 was over 200 µM and the IC50 stood at 3.24 µM.
Consider `CC1(C)O[C@@H](C[C@]2(C#N)C[C@H](CCl)OC(C)(C)O2)C[C@@H](C#N)O1`, for which the outcome was inactive and the concentration for half-maximal inhibition (IC50) is over 200 µM.
As for `O=C(CC(O)(C(F)(F)F)C(F)(F)F)c1ccc(-c2ccccc2)cc1`, the EC50 was over 200 µM and the IC50 stood at 33.9 µM.
Regarding `C[C@]12CCC3[C@@H](CC[C@@H]4c5nonc5CC[C@]34C)C1CC[C@@H]2O` (stereo partly specified), the EC50 was over 214 µM and the IC50 is over 214 µM.
With `O=C(c1nc2ccc(Cl)cc2[nH]c1=O)C(O)c1ccc2c(c1)OCO2` (stereo unspecified), the EC50 was over 501 µM and the IC50 stood at 24.5 µM.
On to `COc1cccc2c(Nc3ccc(S(=O)(=O)Nc4ncccn4)cc3)c3ccc([N+](=O)[O-])cc3nc12`, for which the EC50 is over 100 µM and the IC50 is over 100 µM.
As to `CCOC(=O)c1c(-c2ccc(Br)cc2)ccn1C`, the EC50 is over 200 µM and the IC50 turned out to be 74.1 µM.
On to `Cc1nc2cccc(F)c2c(=O)n1-c1nnc(C2CC2)s1`, for which the EC50 was over 200 µM and the IC50 was over 200 µM.
As to `NS(=O)(=O)c1nnc(NC(=O)c2cccc([N+](=O)[O-])c2)s1`, the EC50 was over 200 µM and the IC50 is over 200 µM.
In the case of `COc1cc(C2c3cc4c(cc3OC(NNS(=O)(=O)c3ccc(C)cc3)C2C)OCO4)cc(OC)c1O` (stereo unspecified), the outcome was inactive.
Take `CN1C2CCC1CC(OC(=O)C(CO)c1ccccc1)C2` (stereo unspecified): the EC50 is over 200 µM and the IC50 was over 200 µM.
Take `COC(=O)c1ccc(NCC2=C(Br)C(=O)C=CC2=O)cc1Cl`: the result was inactive.
Take `CC(Cc1ccc2c(c1)OCO2)N(C)C(=O)C1=CCN(C)CC1` (stereo unspecified): the EC50 was over 200 µM and the IC50 was over 200 µM.
For the compound `COc1ccc(/C=C2/N=C(N/N=C\C(O)C(O)C(O)C(O)CO)NC2=O)cc1` (stereo unspecified), the IC50 was 77.6 µM and 112 µM.
As for `Cc1ccc(-c2n[nH]c(=O)n2/N=C\c2ccc([N+](=O)[O-])cc2)cc1`, the EC50 is over 200 µM and the concentration for half-maximal inhibition (IC50) was determined as 58.9 µM.
In the same order, the values of `C(/C=N/NC1=NCCCCN1)=N\NC1=NCCCCN1` are over 200 µM and over 200 µM.
On to `O=C(NC(=Nc1ccccc1)SCSC(=Nc1ccccc1)NC(=O)c1ccc(Cl)cc1)c1ccc(Cl)cc1`, for which the EC50 is over 100 µM and the IC50 was over 100 µM.
Take `COc1cc(NS(C)(=O)=O)ccc1NCc1c2ccccc2nc2ccccc12`: the result was inactive.
Turning to `CC(=O)Nc1ccc(-n2[nH]c(=O)n(C)c2=O)cc1`, the EC50 was over 100 µM and the IC50 is over 100 µM.
Turning to `C/C(=N\NC(=S)NNC(=S)N(C)c1ccccc1)c1ccccn1`, the EC50 was over 52.5 µM and the IC50 was found to be 0.427 µM.
Consider `O=C(c1ccc(Cl)cc1)N(C(=S)N1CCN(c2ccccn2)CC1)c1ccccc1`, for which the EC50 was over 30.9 µM and the IC50 is over 30.9 µM.
In the case of `COc1ccc(C2NC(=O)N3C(c4ccc(OC)cc4)NC(=O)N23)cc1` (stereo unspecified), the outcome was inactive.
As for `N#Cc1sc2c(c1OC(=O)c1ccccc1)c(=O)n(-c1ccccc1)c(=S)n2-c1ccccc1`, the EC50 was over 200 µM and the IC50 is 2.34 µM.
In the case of `O=S1(=O)C(c2ccccc2)=C(O)c2cc3ccccc3nc21`, the result was inactive.
Consider `CC(C)=C1CCC(C)C/C1=N\NC(N)=S` (stereo unspecified), for which the EC50 was over 200 µM and the half-maximal inhibitory concentration (IC50) was 19.5 µM.
Taken in the same sequence, the figures for `COc1ccc(/C(C)=N/NC(=O)c2ccncc2)c(OC)c1` were over 417 µM and 363 µM.
Taken in the same sequence, the figures for `O=C1NC2CSC(CCCCC(=O)ON3C(=O)CCC3=O)C2N1` (stereo unspecified) were over 741 µM and 123 µM.
In the case of `COc1ccc2c3c1OC1CC(O)C=CC31CCN(C)C2` (stereo unspecified), the EC50 was over 200 µM and the IC50 was over 200 µM.
In the case of `O=C(Nc1c(Cl)cc([N+](=O)[O-])cc1Cl)C(=O)C(C1OC(=O)c2ccccc21)[N+](=O)[O-]` (stereo unspecified), the EC50 is over 57.5 µM and the half-maximal inhibitory concentration (IC50) is over 57.5 µM.
For the compound `COc1cc(C#N)c(NC(=S)N2CCN(C(=O)c3ccco3)CC2)cc1OC`, the EC50 is over 200 µM and the IC50 came to 120 µM.
Taken in the same sequence, the figures for `CCOC(=O)C1(N)CCc2[nH][nH]c(=O)c2C1` (stereo unspecified) were over 200 µM and over 200 µM.
In the same order, the values of `O=C1CCC(O)=C1O` are over 2190 µM and over 2190 µM.
As to `COc1cc2c(cc1OC)C(C(CO)CO)N(CC(O)CCl)CC2` (stereo unspecified), the EC50 is over 692 µM and the IC50 is over 692 µM.
For `CCN(CC)CCOC(NC(C)=O)(c1ccccc1)c1ccccc1`, the EC50 was over 200 µM and the IC50 was over 200 µM.
For `COC(=O)c1sc(=NC(=S)N2CCCCC2)sc1C(=O)OC`, the result was inactive.
With `O=C1NC2(CCCCC2)NC12CCCCC2`, the EC50 was over 135 µM and the IC50 is over 135 µM.
On to `O=C(NN1CCCCCC1)NS(=O)(=O)c1ccc(Cl)cc1`, for which the EC50 was over 200 µM and the IC50 is over 200 µM.
For the compound `O=C1Cc2c(-c3ccccc3)cc(-c3cccc(Cl)c3)nc2-c2ccccc2N1`, the outcome was inactive.
Take `Nc1c(C(=O)O)nnc2ccc(Cl)cc12`: the EC50 is over 200 µM and the IC50 came to 186 µM.
For the compound `NCCCN1CCN(CCCNc2ccc3ncn4c5ccccc5c(=O)c2c34)CC1`, the EC50 is over 25.1 µM and the IC50 worked out at 1.2 µM.
In the same order, the values of `CC1CC(c2ccc([N+](=O)[O-])cc2)=Nc2ccccc2S1=O` (stereo unspecified) are over 12 µM and over 12 µM.
In the case of `Cc1nn(C(=O)c2ccc(Cl)cc2)c2c1C(c1ccccc1)SC(N)=N2` (stereo unspecified), the outcome was inactive.
Consider `Nc1ncnc2c1ncn2CC1COC(CO)O1` (stereo unspecified), for which the EC50 is over 1000 µM and the IC50 was over 1000 µM.
Regarding `CC(C)=C1CC(C)(C)N=C1CCC1=NC(C)(C)CC1=C(C)C`, the EC50 was over 50.1 µM and the half-maximal inhibitory concentration (IC50) came to 28.2 µM.
In the case of `CN(C)C(=O)NC(=S)N(C)C`, the result was inactive.
In the case of `CCCCCCCCCCCCOC1C(COCCN2CCCC2)OC2OC(C)(C)OC21` (stereo unspecified), the EC50 is over 200 µM and the concentration for half-maximal inhibition (IC50) was 3.02 µM.
In the same order, the values of `c1cnc2c(c1)CCc1cc3cccnc3nc1-2` are over 200 µM and 186 µM.
Taken in the same sequence, the figures for `O=C1CCC2(c3ccc(F)cc3)Nc3cc([N+](=O)[O-])ccc3N12` (stereo unspecified) were over 16.6 µM and over 16.6 µM.
